In patent publication US9169509B2, “Topoisomerase 2b as a predictor of susceptibility to anthracycline-induced cardiotoxicity” (Board of Regents, The University of Texas System, priority 2013, dated 2015):

Assays:
[1] = system: cardiomyocytes; test: RT-qPCR of cardiomyocytes isolated from doxorubicin-treated mice; assay type: in vivo, mouse
Description: Isolation of cardiomyocytes from mouse heart was carried out with Langendorff perfusion apparatus according to the standard protocol described above. Total RNA extraction was performed with TRIZOL Reagent (Invitrogen) and purification with RNeasy Mini Kit (QIAGEN) according the manufacturer's protocol. The concentration of RNA obtained was measured using a super-sensitive NanoDrop ND1000 spectrophotometer (Thermo Scientific). Reverse transcription reaction was performed by using the High Capacity RNA-to-cDNA Kit (Applied Biosystem). In brief, cDNA was generated from 1 μg of RNA by RT Enzyme Mix according to the manufacturer's instructions on a PCR thermocycler (S1000TM Thermal Cycler, BIO-RAD, USA). The resulting cDNA was diluted to a final concentration of 50 ng/μl for PCR amplification. Real time quantitative PCR was carried out by using a 7900HT Fast Real-Time PCR System (Applied Biosystems). Mouse TaqMan® Gene primers and probes (FAM, Applied Biosystem), were used in PCR amplification. Mouse GAPDH was used as internal control (VIC®/MGB Probe, Primer Limited, Applied Biosystem). The following TaqMan® Gene primers/probes were used Sdha (Mm01352366_m1), ATP5a1: (Mm00431960_m1), Ndufa3 (Mm01329704_g1), Ppargcla (PGC-1α, Mm01208835_m1), Ppargc1b (PGC-1β, Mm00504720_m1), Esrra (EER, Mm00433143_m1), Trp53inp1 (Mm00458141_m1), Fas: (Mm00433237_m1), Apaf1 (Mm01223702_m1), Bax (Mm00432051_m1), Mdm2 (Mm01233136_m1), and GAPDH: Mouse GAPD (GAPDH) Endogenous Control (VIC®/MGB Probe, Primer Limited). Comparative analyses of each gene were performed using company-provided softwares, SDS2.4 and RQ Manager 1.2.1 (Applied Biosystems). All amplifications were carried out at least in duplicates. The mRNA expression levels of each gene were calculated by using the 2-ΔΔCt (comparative threshold cycle) method, as detailed by the manufacturer (Applied Biosystems).

[2] = system: PGC-1α and PGC-1β promoters; test: Chromatin immunoprecipitation with Top2b antibody at PGC-1 promoters; assay type: cell-based, mouse; details: HL-1 cells (DOX 2 h) and cardiomyocytes isolated 16 h after 25 mg/kg ip
Description: FIGS. 7a-e: a, b. PGC-1 expression in HL-1 cells. […] Expression was measured with RT-qPCR. c, d. CHiP analysis in HL-1 cells. HL-1 cardiomyocytes were treated with (right bars) or without (left bars) DOX ([…]) for 2 hrs and isolated for ChIP using the Top2β antibody. The eluted DNA and Input were PCR amplified to detect specific promoter regions represented in the schematic above the respective ChIP data. In the presence of DOX, the Top2b is readily bound to Region #1 and Region #3 of the PGC-1α promoter (c) and Region #1 and #2 of the PGC-1β promoter (d). e. CHiP study in cardiomyocytes. Cardiomyocytes were isolated from control (n=4) and Dox-treated (n=4) mice and subject to ChIP with the Top2b antibody. The data represent real-time PCR ratios for the fold-enrichment of Top2b at the respective promoters. Top2β binds the Region #1 of the PGC-1α and PGC-1β promoters efficiently following Dox treatment.
HL-1 cells were treated with or without DOX (1 μM) for 2 h and subsequently evaluated using the ChIP protocol as previously published (24-26). For ChIP assay on isolated cardiomyocytes, mice were treated with doxorubicin (25 mg/kg, ip) or drug vehicle. […] For each individual treatment sample, the eluted ChIP product was normalized to the Input product to rule out differences in total DNA quantities between control and Dox-treatment samples. […]

[3] = Top2b+/+ cardiomyocytes, 16 hrs after doxorubicin 25 mg/kg i.p.

## COc1cccc2c1C(=O)c1c(O)c3c(c(O)c1C2=O)C[C@@](O)(C(=O)CO)C[C@@H]3O[C@H]1C[C@H](N)[C@H](O)[C@H](C)O1 [doxorubicin]
[1]; [3]
  Transcript of Apaf1, Bax, and Fas (apoptosis pathway genes): increases
  Up-regulation of the transcript encoding p53DINP1 (TP53INP1): 200 fold
[1]; Top2b+/+ hearts, chronic doxorubicin 5 mg/kg once a week for 5 weeks
  Genes involved in mitochondrial biogenesis (RT-qPCR): Reduction of genes involved in mitochondrial biogenesis
[1]; doxorubicin treated Top2b+/+ cardiomyocytes, 72 h, much less so in Top2bΔ/Δ
  Transcripts of Ndufa3, Sdha and Atp5a (electron transport chain): decreased
[1]; doxorubicin-treated wild type cardiomyocytes, 72 h, not in Top2b-deleted
  Erra transcript: down-regulated
[2]
  Top2b binding to the promoter of the PGC-1α and PGC-1β genes in the presence of doxorubicin (ChIP): binds avidly
